From article PMC3522424 (Vaccine, 2012) come the findings set out here.

For the experiment, the system named is PBMCs from HIV-infected HLA-A2-positive subjects. Kind of experiment: IFNγ ELISpot with PBMCs from HIV-infected HLA-A2 subjects. The conditions noted are these: for % donors responding positively in ELISpots: Providence and Mali donors together; for IFNγ ELISpot response, donor 0015404: A02, A0285, A0286; for IFNγ ELISpot response, donor 0015299 / IFNγ ELISpot response, donor 0018349: A0208; for IFNγ ELISpot response, donor 0015269: A0209, A0231; for IFNγ ELISpot response, donor H_0912: HLA-A A0201; for IFNγ ELISpot response, donor H_0865: HLA-A A02011.

Where [1] appears, read: cohort #3 Bamako, Mali, positive donors / 8 donors.
Where [2] appears, read: cohort #3 Bamako, Mali, peptide 10 μg/ml, overnight 37°C.
[3] abbreviates: cohort #1 Providence, positive donors / 16 donors.
Where [4] appears, read: cohort #1 Providence, peptide 10 μg/ml, overnight 37°C.

With PLQLPPLERL [Peptide 2004], the “% donors responding positively in ELISpots” value (peptide 10 μg/ml) came to 50.0%. Besides, the “Total responses per epitope” value under setting [1] is reported as 4/8. In addition, under setting [2], the “IFNγ ELISpot response, donor 0015404” value is 59 spots per 10^6 PBMCs; the “IFNγ ELISpot response, donor 0015299” value was 36 spots per 10^6 PBMCs; the “IFNγ ELISpot response, donor 0018349” value is reported as 37 spots per 10^6 PBMCs; the “IFNγ ELISpot response, donor 0015269” value was “- (ELISpot responses that fall below this cutoff point are indicated with a dash mark)”.

Turning to RTLNAWVKV [Peptide 3003], the “% donors responding positively in ELISpots” value (peptide 10 μg/ml) came to 25.0%. For the same sequence, the “Total responses per epitope” value under setting [1] is reported as 2/8. Further, under setting [2], the “IFNγ ELISpot response, donor 0015404” value was found to be 43 spots per 10^6 PBMCs; the “IFNγ ELISpot response, donor 0015299” value is on record as “- (ELISpot responses that fall below this cutoff point are indicated with a dash mark)”; the “IFNγ ELISpot response, donor 0018349” value was “- (ELISpot responses that fall below this cutoff point are indicated with a dash mark)”; the “IFNγ ELISpot response, donor 0015269” value is reported as “- (ELISpot responses that fall below this cutoff point are indicated with a dash mark)”.

For the sequence ILKEPVHGVY [Peptide 1249], the “Subjects with a positive response” value (cohort #2 Providence, eight subjects) came out at 37.5%. Further, under “cohort #2 Providence, positive donors / 8 donors”, the “Total responses per epitope” value is given as 3/8. Under “cohort #2 Providence, A2, A3, B44, Cw05, Cw07, peptide 10 μg/ml, overnight 37°C”, the “IFNγ ELISpot response, donor 0517001” value is reported as 117 spots per 10^6 PBMCs. Also, for the setting “cohort #2 Providence, A2, A30, B39, peptide 10 μg/ml, overnight 37°C”, the “IFNγ ELISpot response, donor 0902991” value was determined as 2380 spots per 10^6 PBMCs.

On to RLEPWKHPG [Peptide 1017], for which the “% donors responding positively in ELISpots” value (peptide 10 μg/ml) was 6.3%. Under setting [3], the “Total responses per epitope” value is on record as 1/16. Further, under setting [4], the “IFNγ ELISpot response, donor H_0912” value stood at 29 spots per 10^6 PBMCs and the “IFNγ ELISpot response, donor H_0865” value is “- (ELISpot responses that fall below this cutoff point are indicated with a dash mark)”.

For GIKPVVSTQL [Peptide 1001], the “% donors responding positively in ELISpots” value (peptide 10 μg/ml) amounted to 20.8%. The “Total responses per epitope” value under setting [3] is given as 2/16. For the same sequence, under setting [4], the “IFNγ ELISpot response, donor H_0912” value is reported as 903 spots per 10^6 PBMCs and the “IFNγ ELISpot response, donor H_0865” value was “- (ELISpot responses that fall below this cutoff point are indicated with a dash mark)”. The “IFNγ ELISpot response, donor H_0854” value (cohort #1 Providence, HLA-A A02011, A3401, peptide 10 μg/ml, overnight 37°C) is given as 75 spots per 10^6 PBMCs. Under setting [1], the “Total responses per epitope” value is given as 3/8. Further, under setting [2], the “IFNγ ELISpot response, donor 0015404” value turned out to be 111 spots per 10^6 PBMCs; the “IFNγ ELISpot response, donor 0015299” value came to 53 spots per 10^6 PBMCs; the “IFNγ ELISpot response, donor 0018349” value was 37 spots per 10^6 PBMCs; the “IFNγ ELISpot response, donor 0015269” value is “- (ELISpot responses that fall below this cutoff point are indicated with a dash mark)”.

In the case of WLWYIKIFI [Peptide 3002], the “% donors responding positively in ELISpots” value (peptide 10 μg/ml) stood at 12.5%. For the same sequence, the “Total responses per epitope” value under setting [1] is on record as 1/8. For the same sequence, under setting [2], the “IFNγ ELISpot response, donor 0015404” value came to 63 spots per 10^6 PBMCs; the “IFNγ ELISpot response, donor 0015299” value was “- (ELISpot responses that fall below this cutoff point are indicated with a dash mark)”; the “IFNγ ELISpot response, donor 0018349” value is “- (ELISpot responses that fall below this cutoff point are indicated with a dash mark)”; the “IFNγ ELISpot response, donor 0015269” value was “- (ELISpot responses that fall below this cutoff point are indicated with a dash mark)”.

DIQKLVGKL [Peptide 1010]: the “IFNγ ELISpot response, stated in words” value (PBMCs from HIV-1-infected HLA-A2 subjects, Providence and/or Bamako as stated) was “elicited IFNγ ELISpot responses”. In addition, the “% donors responding positively in ELISpots” value (peptide 10 μg/ml) was found to be 6.3%. Also, the “Total responses per epitope” value under setting [3] is on record as 1/16. Under setting [4], the “IFNγ ELISpot response, donor H_0912” value is “- (ELISpot responses that fall below this cutoff point are indicated with a dash mark)” and the “IFNγ ELISpot response, donor H_0865” value is “- (ELISpot responses that fall below this cutoff point are indicated with a dash mark)”. For the same sequence, the “IFNγ ELISpot response, donor H_0836” value (cohort #1 Providence, HLA-A A02011, A2901, peptide 10 μg/ml, overnight 37°C) is recorded as 64 spots per 10^6 PBMCs.

Turning to SAEPVPLQL [Peptide 2003], where the note is “peptide 10 μg/ml”, the “% donors responding positively in ELISpots” value is 50.0%. Further, the “Total responses per epitope” value under setting [1] is recorded as 4/8. Under setting [2], the “IFNγ ELISpot response, donor 0015404” value worked out at 50 spots per 10^6 PBMCs; the “IFNγ ELISpot response, donor 0015299” value came to 25 spots per 10^6 PBMCs; the “IFNγ ELISpot response, donor 0018349” value was 25 spots per 10^6 PBMCs; the “IFNγ ELISpot response, donor 0015269” value is “- (ELISpot responses that fall below this cutoff point are indicated with a dash mark)”.
